Results as given in US12077503B2, “Substituted cyclic amides and their use as herbicides” (FMC CORPORATION, priority 2015, dated 2024).
Each block holds one molecule with its values, some of them ahead of it.

Tests used:
[1] = tested on: Galium (catchweed bedstraw, Galium aparine); test: Test C preemergence; format: in vivo; settings: for Plant response rating, Galium: scale 0 to 100, 0 no effect, 100 complete control
How it was run: (§1)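 Seeds in loam-sand soil treated preemergence, or plants in peat-based medium sprayed postemergence at 2–18 cm (1- to 4-leaf stage), with compound in a non-phytotoxic solvent mixture containing surfactant. Greenhouse-held 13–15 d, then visually rated against controls on a 0–100 scale (0 = no effect, 100 = complete control); dash = not tested.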

[2] = tested on: barnyardgrass (Echinochloa crus-galli); test: Test C preemergence; format: in vivo; settings: for Plant response rating, Barnyardgrass: scale 0 to 100, 0 no effect, 100 complete control
How it was run: as §1

[3] = tested on: blackgrass (Alopecurus myosuroides); test: Test C preemergence; format: in vivo; settings: for Plant response rating, Blackgrass: scale 0 to 100, 0 no effect, 100 complete control
How it was run: as §1

corn (Zea mays) = test: Test C preemergence; format: in vivo; settings: for Plant response rating, Corn: scale 0 to 100, 0 no effect, 100 complete control
How it was run: as §1

[4] = tested on: crabgrass, large (large crabgrass, Digitaria sanguinalis); test: Test C preemergence; format: in vivo; settings: for Plant response rating, Crabgrass, Large: scale 0 to 100, 0 no effect, 100 complete control
How it was run: as §1

[5] = tested on: foxtail, giant (giant foxtail, Setaria faberii); test: Test C preemergence; format: in vivo; settings: for Plant response rating, Foxtail, Giant: scale 0 to 100, 0 no effect, 100 complete control
How it was run: as §1

[6] = tested on: johnsongrass (Sorghum halepense); test: Test C preemergence; format: in vivo; settings: for Plant response rating, Johnsongrass: scale 0 to 100, 0 no effect, 100 complete control
How it was run: as §1

[7] = tested on: lambsquarters (Chenopodium album); test: Test C preemergence; format: in vivo; settings: for Plant response rating, Lambsquarters: scale 0 to 100, 0 no effect, 100 complete control
How it was run: as §1

[8] = tested on: morningglory (Ipomoea coccinea); test: Test C preemergence; format: in vivo; settings: for Plant response rating, Morningglory: scale 0 to 100, 0 no effect, 100 complete control
How it was run: as §1

[9] = tested on: nutsedge, yellow (yellow nutsedge, Cyperus esculentus); test: Test C preemergence; format: in vivo; settings: for Plant response rating, Nutsedge, Yellow: scale 0 to 100, 0 no effect, 100 complete control
How it was run: as §1

[10] = tested on: oilseed rape (Brassica napus); test: Test C preemergence; format: in vivo; settings: for Plant response rating, Oilseed Rape: scale 0 to 100, 0 no effect, 100 complete control
How it was run: as §1

[11] = tested on: pigweed (Amaranthus retroflexus); test: Test C preemergence; format: in vivo; settings: for Plant response rating, Pigweed: scale 0 to 100, 0 no effect, 100 complete control
How it was run: as §1

[12] = tested on: ragweed (common ragweed, Ambrosia elatior); test: Test C preemergence; format: in vivo; settings: for Plant response rating, Ragweed: scale 0 to 100, 0 no effect, 100 complete control
How it was run: as §1

[13] = tested on: ryegrass, Italian (Italian ryegrass, Lolium multiflorum); test: Test C preemergence; format: in vivo; settings: for Plant response rating, Ryegrass, Italian: scale 0 to 100, 0 no effect, 100 complete control
How it was run: as §1

soybean (Glycine max) = test: Test C preemergence; format: in vivo; settings: for Plant response rating, Soybean: scale 0 to 100, 0 no effect, 100 complete control
How it was run: as §1

[14] = tested on: velvetleaf (Abutilon theophrasti); test: Test C preemergence; format: in vivo; settings: for Plant response rating, Velvetleaf: scale 0 to 100, 0 no effect, 100 complete control
How it was run: as §1

[15] = tested on: waterhemp (common waterhemp, Amaranthus rudis); test: Test C preemergence; format: in vivo; settings: for Plant response rating, Waterhemp: scale 0 to 100, 0 no effect, 100 complete control
How it was run: as §1

[16] = tested on: wheat (winter wheat, Triticum aestivum); test: Test C preemergence; format: in vivo; settings: for Plant response rating, Wheat: scale 0 to 100, 0 no effect, 100 complete control
How it was run: as §1

rice (Oryza sativa) = test: Test C flooded paddy test; format: in vivo; settings: Flood; for Plant response rating (scale of 0 to 100), Rice: 0 is no effect, 100 is complete control
How it was run: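 Test compounds were dosed straight into the flood water of pots holding 2-leaf-stage plants, with water kept 3 cm above the soil. Greenhouse plants were scored visually against controls after 13 to 15 d, from 0 (no effect) to 100 (complete control).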

[17] = 31 g ai/ha, 0 is no effect, 100 is complete control

Compound: CC(C)=CC1CNC(=O)C1C(=O)Nc1cccc(F)c1F (stereo not shown) [Compound 1012]
melting point: 162 to 166 °C

Compound: O=C1NC[C@H](c2ccc(F)c(Oc3ccccc3)c2)[C@H]1C(=O)Nc1cccc(F)c1F [Compound 1258]
melting point: 123 to 127 °C

Compound: COc1ccc([C@H]2CNC(=O)[C@@H]2C(=O)Nc2cccc(F)c2F)cc1 [Compound 1341]
melting point: 187 to 191 °C

Compound: CN1CC(c2cc(F)cc(F)c2)C(C(=O)Nc2cccc(F)c2F)C1=O (stereo not shown) [Compound 644]
Plant response rating (scale of 0 to 100), Galium [1, 17]: 10
Plant response rating, Galium ([1]; 62 g ai/ha): 85
Plant response rating, Galium ([1]; 125 g ai/ha): 90
Plant response rating, Galium ([1]; 250 g ai/ha): 98
Plant response rating (scale of 0 to 100), Barnyardgrass [2, 17]: 90
Plant response rating, Barnyardgrass ([2]; 62 g ai/ha): 95
Plant response rating, Barnyardgrass ([2]; 125 g ai/ha): 98
Plant response rating, Barnyardgrass ([2]; 250 g ai/ha): 98
Plant response rating (scale of 0 to 100), Blackgrass [3, 17]: 70
Plant response rating, Blackgrass ([3]; 62 g ai/ha): 70
Plant response rating, Blackgrass ([3]; 125 g ai/ha): 90
Plant response rating, Blackgrass ([3]; 250 g ai/ha): 95
Plant response rating (scale of 0 to 100), Corn (corn (Zea mays); [17]): 30
Plant response rating, Corn (corn (Zea mays); 62 g ai/ha): 50
Plant response rating, Corn (corn (Zea mays); 125 g ai/ha): 65
Plant response rating, Corn (corn (Zea mays); 250 g ai/ha): 85
Plant response rating (scale of 0 to 100), Crabgrass, Large [4, 17]: 95
Plant response rating, Crabgrass, Large ([4]; 62 g ai/ha): 95
Plant response rating, Crabgrass, Large ([4]; 125 g ai/ha): 98
Plant response rating, Crabgrass, Large ([4]; 250 g ai/ha): 100
Plant response rating (scale of 0 to 100), Foxtail, Giant [5, 17]: 95
Plant response rating, Foxtail, Giant ([5]; 62 g ai/ha): 95
Plant response rating, Foxtail, Giant ([5]; 125 g ai/ha): 98
Plant response rating, Foxtail, Giant ([5]; 250 g ai/ha): 98
Plant response rating (scale of 0 to 100), Johnsongrass [6, 17]: 35
Plant response rating, Johnsongrass ([6]; 62 g ai/ha): 70
Plant response rating, Johnsongrass ([6]; 125 g ai/ha): 85
Plant response rating, Johnsongrass ([6]; 250 g ai/ha): 85
Plant response rating (scale of 0 to 100), Lambsquarters [7, 17]: 50
Plant response rating, Lambsquarters ([7]; 62 g ai/ha): 75
Plant response rating, Lambsquarters ([7]; 125 g ai/ha): 85
Plant response rating, Lambsquarters ([7]; 250 g ai/ha): 85
Plant response rating (scale of 0 to 100), Morningglory [8, 17]: 0
Plant response rating, Morningglory ([8]; 62 g ai/ha): 0
Plant response rating, Morningglory ([8]; 125 g ai/ha): 0
Plant response rating, Morningglory ([8]; 250 g ai/ha): 0
Plant response rating (scale of 0 to 100), Nutsedge, Yellow [9, 17]: 0
Plant response rating, Nutsedge, Yellow ([9]; 62 g ai/ha): 0
Plant response rating, Nutsedge, Yellow ([9]; 125 g ai/ha): 0
Plant response rating, Nutsedge, Yellow ([9]; 250 g ai/ha): 15
Plant response rating (scale of 0 to 100), Oilseed Rape [10, 17]: 0
Plant response rating, Oilseed Rape ([10]; 62 g ai/ha): 50
Plant response rating, Oilseed Rape ([10]; 125 g ai/ha): 85
Plant response rating, Oilseed Rape ([10]; 250 g ai/ha): 90
Plant response rating (scale of 0 to 100), Pigweed [11, 17]: 0
Plant response rating, Pigweed ([11]; 62 g ai/ha): 55
Plant response rating, Pigweed ([11]; 125 g ai/ha): 55
Plant response rating, Pigweed ([11]; 250 g ai/ha): 70
Plant response rating (scale of 0 to 100), Ragweed [12, 17]: 25
Plant response rating, Ragweed ([12]; 62 g ai/ha): 35
Plant response rating, Ragweed ([12]; 125 g ai/ha): 70
Plant response rating, Ragweed ([12]; 250 g ai/ha): 85
Plant response rating (scale of 0 to 100), Ryegrass, Italian [13, 17]: 50
Plant response rating, Ryegrass, Italian ([13]; 62 g ai/ha): 55
Plant response rating, Ryegrass, Italian ([13]; 125 g ai/ha): 65
Plant response rating, Ryegrass, Italian ([13]; 250 g ai/ha): 98
Plant response rating (scale of 0 to 100), Soybean (soybean (Glycine max); [17]): 10
Plant response rating, Soybean (soybean (Glycine max); 62 g ai/ha): 10
Plant response rating, Soybean (soybean (Glycine max); 125 g ai/ha): 0
Plant response rating (scale of 0 to 100), Velvetleaf [14, 17]: 5
Plant response rating, Velvetleaf ([14]; 62 g ai/ha): 15
Plant response rating, Velvetleaf ([14]; 125 g ai/ha): 40
Plant response rating, Velvetleaf ([14]; 250 g ai/ha): 60
Plant response rating (scale of 0 to 100), Waterhemp [15, 17]: 10
Plant response rating, Waterhemp ([15]; 62 g ai/ha): 65
Plant response rating, Waterhemp ([15]; 125 g ai/ha): 65
Plant response rating, Waterhemp ([15]; 250 g ai/ha): 80
Plant response rating (scale of 0 to 100), Wheat [16, 17]: 30
Plant response rating, Wheat ([16]; 62 g ai/ha): 80
Plant response rating, Wheat ([16]; 125 g ai/ha): 85
Plant response rating, Wheat ([16]; 250 g ai/ha): 90
Plant response rating, Rice (rice (Oryza sativa); 31 g ai/ha, scale 0 to 100 (0 no effect, 100 complete control), 13 to 15 d): 0
Plant response rating (scale of 0 to 100), Rice (rice (Oryza sativa); 62 g ai/ha): 0
Plant response rating (scale of 0 to 100), Rice (rice (Oryza sativa); 125 g ai/ha): 0
Plant response rating (scale of 0 to 100), Rice (rice (Oryza sativa); 250 g ai/ha): 0

Compound: O=C1NC[C@H](c2cc(Br)cc(Br)c2)[C@H]1C(=O)Nc1cccc(F)c1F [Compound 1366]
melting point: 81 to 85 °C

Compound: CN1C[C@H](c2ccc(F)c(Oc3ccccc3)c2)[C@@H](C(=O)Nc2ccccc2S(C)(=O)=O)C1=O [Compound 1143]
melting point: 141 to 145 °C

Compound: C=C(C)c1cccc([C@H]2CN(C)C(=O)[C@@H]2C(=O)Nc2cccc(F)c2C)c1 [Compound 1086]
melting point: 89 to 93 °C

Results, then the molecule that gave them:

melting point: 163 to 167 °C
Compound: COc1cccc([C@H]2CN(C)C(=O)[C@@H]2C(=O)Nc2cccc(F)c2F)c1F [Compound 1072]

melting point: 126 to 130 °C
Compound: C=C(C)c1ccc([C@H]2CN(C)C(=O)[C@@H]2C(=O)Nc2cccc(F)c2F)cc1 [Compound 1149]

melting point: 113 to 117 °C
Compound: C=C(C)c1cccc([C@H]2CN(C)C(=O)[C@@H]2C(=O)Nc2cccc(F)c2F)c1 [Compound 1085]

melting point: 130 to 134 °C
Compound: COc1ccc([C@H]2CN(C)C(=O)[C@@H]2C(=O)Nc2cccc(F)c2F)cc1 [Compound 1343]
